Results as given in PubChem BioAssay (NCI).
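1) Cells in 96-well plates. 2) Compound, 48 h, 5 concentrations. 3) Linear interpolation between surrounding doses. 4) Unreached endpoint = highest concentration. Here, GI50 denotes the concentration required for 50% inhibition of growth. TGI: total growth inhibition.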

Columns and labels:
Experiment in all cases: DTP human tumour cell line panel, 48 h
[1] = tested on: 786-0 renal
[2] = tested on: A498 renal
[3] = tested on: A549 NSCLC
[4] = tested on: ACHN renal
[5] = tested on: BT-549 breast
[6] = tested on: CAKI-1 renal
[7] = tested on: CCRF-CEM leukemia
[8] = tested on: COLO 205 colon
[9] = tested on: DU-145 prostate
[10] = tested on: EKVX NSCLC
[11] = tested on: HCC-2998 colon
[12] = tested on: HCT-116 colon
[13] = tested on: HCT-15 colon
[14] = tested on: HL-60(TB) leukemia
[15] = tested on: HOP-62 NSCLC
[16] = tested on: HOP-92 NSCLC
[17] = tested on: HS 578T breast
[18] = tested on: HT29 colon
[19] = tested on: IGROV1 ovarian
[20] = tested on: K-562 leukemia
[21] = tested on: KM12 colon
[22] = tested on: LOX IMVI melanoma
[23] = tested on: M14 melanoma
[24] = tested on: MALME-3M melanoma
[25] = tested on: MCF7 breast
[26] = tested on: MDA-MB-231 breast
[27] = tested on: MDA-MB-435
[28] = tested on: MOLT-4 leukemia
[29] = tested on: NCI-H226 lung
[30] = tested on: NCI-H23 lung
[31] = tested on: NCI-H460 lung
[32] = tested on: NCI-H522 lung
[33] = tested on: NCI/ADR-RES ovarian
[34] = tested on: OVCAR-3 ovarian
[35] = tested on: OVCAR-4 ovarian
[36] = tested on: OVCAR-5 ovarian
[37] = tested on: PC-3 prostate
[38] = tested on: RPMI-8226 leukemia
[39] = tested on: RXF 393 renal
[40] = tested on: SF-268 CNS
[41] = tested on: SF-295 CNS
[42] = tested on: SF-539 CNS
[43] = tested on: SK-MEL-2 melanoma
[44] = tested on: SK-MEL-28 melanoma
[45] = tested on: SK-MEL-5 melanoma
[46] = tested on: SK-OV-3 ovarian
[47] = tested on: SN12C renal
[48] = tested on: SNB-19 CNS
[49] = tested on: SNB-75 CNS
[50] = tested on: SR leukemia
[51] = tested on: SW-620 colon
[52] = tested on: T-47D breast
[53] = tested on: TK-10 renal
[54] = tested on: U251 CNS
[55] = tested on: UACC-257 melanoma
[56] = tested on: UACC-62 melanoma
[57] = tested on: UO-31 renal

Nc1cc2ccccc2c(O)c1O
GI50 [1]: 1.85 µM | TGI [1]: 3.28 µM | GI50 [2]: 16.1 µM | TGI [2]: 30.5 µM | GI50 [3]: 20.5 µM | TGI [3]: 41.4 µM | GI50 [4]: 1.69 µM | TGI [4]: 3.54 µM | GI50 [5]: 13.3 µM | TGI [5]: 26.1 µM | GI50 [6]: 1.67 µM | TGI [6]: 3.1 µM | GI50 [7]: 3 µM | TGI [7]: 7.85 µM | GI50 [8]: 15 µM | TGI [8]: 31.5 µM | GI50 [9]: 13.4 µM | TGI [9]: 27.4 µM | GI50 [10]: 10.7 µM | TGI [10]: 22.7 µM | GI50 [11]: 12.8 µM | TGI [11]: 27.1 µM | GI50 [12]: 2.07 µM | TGI [12]: 4.5 µM | GI50 [13]: 1.9 µM | TGI [13]: 4.08 µM | GI50 [14]: 2.08 µM | TGI [14]: 5.77 µM | GI50 [15]: 15.7 µM | TGI [15]: 30.1 µM | GI50 [16]: 1.96 µM | TGI [16]: 5.75 µM | GI50 [17]: 5.7 µM | TGI [17]: 96.2 µM | GI50 [18]: 19.6 µM | TGI [18]: 41.8 µM | GI50 [19]: 3.98 µM | TGI [19]: 16.3 µM | GI50 [20]: 2.59 µM | TGI [20]: 8.11 µM | GI50 [21]: 5.24 µM | TGI [21]: 18.9 µM | GI50 [22]: 1.59 µM | TGI [22]: 2.94 µM | GI50 [23]: 3.35 µM | TGI [23]: 12.3 µM | GI50 [24]: 1.87 µM | TGI [24]: 3.83 µM | GI50 [25]: 1.88 µM | TGI [25]: 4.32 µM | GI50 [26]: 1.96 µM | TGI [26]: 5.22 µM | GI50 [27]: 1.83 µM | TGI [27]: 3.38 µM | GI50 [28]: 2.49 µM | TGI [28]: 6.27 µM | GI50 [29]: 2.36 µM | TGI [29]: 5.84 µM | GI50 [30]: 3.5 µM | TGI [30]: 17.9 µM | GI50 [31]: 13 µM | TGI [31]: 32.1 µM | GI50 [32]: 1.97 µM | TGI [32]: 3.94 µM | GI50 [33]: 2.37 µM | TGI [33]: 6.21 µM | GI50 [34]: 1.74 µM | TGI [34]: 3.52 µM | GI50 [35]: 1.53 µM | TGI [35]: 2.88 µM | GI50 [36]: 3.13 µM | TGI [36]: 13.5 µM | GI50 [37]: 1.73 µM | TGI [37]: 3.91 µM | GI50 [38]: 2.72 µM | TGI [38]: 7.13 µM | GI50 [39]: 1.83 µM | TGI [39]: 3.25 µM | GI50 [40]: 1.78 µM | TGI [40]: 3.59 µM | GI50 [41]: 15.7 µM | TGI [41]: 29.8 µM | GI50 [42]: 1.79 µM | TGI [42]: 3.32 µM | GI50 [43]: 14.4 µM | TGI [43]: 33.1 µM | GI50 [44]: 12.8 µM | TGI [44]: 27.4 µM | GI50 [45]: 15.1 µM | TGI [45]: 29.3 µM | GI50 [46]: 15.4 µM | TGI [46]: 29 µM | GI50 [47]: 2.13 µM | TGI [47]: 4.78 µM | GI50 [48]: 15.6 µM | TGI [48]: 31.9 µM | GI50 [49]: 1.94 µM | TGI [49]: 18.4 µM | GI50 [50]: 3.16 µM | TGI [50]: 13.2 µM | GI50 [51]: 2.08 µM | TGI [51]: 4.33 µM | GI50 [52]: 2.71 µM | TGI [52]: 7.69 µM | GI50 [53]: 17.9 µM | TGI [53]: 32.2 µM | GI50 [54]: 1.91 µM | TGI [54]: 3.48 µM | GI50 [55]: 5.31 µM | TGI [55]: 18.1 µM | GI50 [56]: 5.65 µM | TGI [56]: 18.7 µM | GI50 [57]: 2.53 µM | TGI [57]: 10.3 µM
